Patent US8048455B2, “Treatment of cancer and inflammatory disorder” (Academia Sinica, priority 2006, dated 2011)

Assays:
NF-κB•DNA complex = test: Electrophoretic mobility shift assay of NF-κB binding to consensus DNA in LPS-stimulated RAW 264.7 cells; type: cell-based, murine; details: 100 μM, LPS 1 μg/mL, 90 min
Experimental: EMSA was performed with the […]™ Chemiluminescent EMSA kit (Pierce Biotechnology, Rockford, Ill.). […] The DNA-protein complexes were subjected to 5-10% gradient PAGE. Competition assay with unlabeled oligonucleotide (cold DNA) was performed in parallel. […]

NO = test: Plasma nitrite concentration in SNP-treated mice; type: in vivo, Female ICR mice; details: topical pretreatment 30 min before SNP; dLGG 10 mg/site, PTIO 3.5 mg/site
Experimental: Female ICR mice were topically treated on their shaven back area of a 2-cm diameter (3.14 cm^2/site/mouse) with vehicle control (acetone), SNP (positive control), or with dLGG or PTIO for 30 minutes before SNP application. Mouse plasma samples were subjected to determine the nitrite content followed a published method (Moshage et al. Clin Chem 1995; 41:892-6).
To examine the capability of dLGG to scavenge NO in vivo, the plasma NO concentration in SNP-insulted mice was determined with or without pretreatment with dLGG. Female ICR mice were transdermally treated with 200 μL acetone (vehicle control) or SNP (5.96 mg/site) only for 15 minutes, or pre-treated with dLGG (10 mg/site) or PTIO (3.5 mg/site) for 30 minutes before SNP treatment.

human COX-2 promoter = test: COX-2 promoter-driven luciferase reporter assay in TPA-treated B16 melanoma cells; type: cell-based, murine; details: reference control
Source text: A double-mutated COX-2 promoter containing mutations on both NF-κB sites was also constructed (FIG. 2). PPGL-3-Basic vector was used as a negative control in luciferase assays. COX-2 reporter activity in arbitrary units (AU) was normalized to that for the Renilla luciferase reporter.
Murine melanoma B-16 cells co-transfected with the full-length pCOX-2-Luc and internal control plasmid pRL-TK-Luc plasmid constructs were stimulated without (control) or with TPA, in the absence or presence of the indicated concentrations of CREa8. An amount of 10 μg of total protein lysate was subjected to dual luciferase reporter assay. The induction fold of COX promoter activity by TPA treatment only is presented as 100%. The statistical analyses between […] and CREa8, aspirin, or indomethacin (Indo.) treatment were performed using Student's t-test.
B-16 cells were co-transfected with the full-length pCOX-2-Luc and internal control Renilla pRL-TK-Luc plasmid constructs with the LIPOFECTAMINE reagent (Invitrogen). The cells were then stimulated with vehicle (0.001% DMSO) or with 50 ng/mL TPA, in the absence or presence of dLGG for 6 hours. Ten μg of total protein lysate prepared with Passive Lysis Buffer (Promega) was subjected to dual luciferase reporter assay. The induction fold of COX-2 promoter activity by TPA treatment only is presented as 100%.
The contribution of specific cis-acting element binding sites on the transcription of COX-2 was examined. Data were obtained from 2 to 3 experiments with 3 to 6 replicates and expressed as mean±SD. Two-way ANOVA was used to analyze significance of differences.

B16 melanoma = test: In vivo inhibition of B16 melanoma growth in C57BL/6J mice
Experimental: The chemopreventive effect of the CREa8 subfraction was evaluated on tumor growth using the B16 melanoma C57BL/6J mouse system. Six-week-old animals (4 groups of mice, 5 in each group) were used in this experiment. Group 1 mice (Sham control) were intraperitoneally (i.p.) injected with 20 μL of DMSO every 2 days throughout the experimental period, except 100 μL PBS was injected on day 0. Group 4 mice (Tumor control) were pre-treated with DMSO every 2 days, starting from day—14, for 2 weeks, inoculated with B16 tumor cells (1×10^6 cells/100 μL PBS) subcutaneously (s.c.) on the abdominal area on day 0, and then injected with DMSO every 2 days until day 21. Group 2 mice were i.p. pre-treated with CREa8 (10 mg/kg body weight per dose) every 2 days, starting from day—14, for 2 weeks, s.c. inoculated with B16 tumor cells on day 0, and then continuously treated with CREa8 (i.p.) every 2 days until day 21. Group 3 mice were similarly pre-treated with DMSO every 2 days for 2 weeks, inoculated with B16 tumor cells on day 0, and then treated with cisplatin (i.p.) every 2 days until day 21. The test mice were monitored daily, and body weights and tumor size (average of 2 dimensions) recorded every 2 days. At the end of the experiment (day 21), tumors were excised and weighed.
The cancer prevention efficacy of the dLGG-rich fraction (CREa8) was examined in vivo in 4 groups of mice according to the method described above. Cisplatin, a cancer chemotherapeutic, was used as a reference control.

CC/C=C\C/C=C\C/C=C\CCCCCCCC(=O)OC[C@@H](O)CO[C@@H]1O[C@H](CO)[C@H](O)[C@H](O)[C@H]1O [1LGG, 1-O-α-linolenoyl-3-O-β-galactopyranosyl-sn-glycerol]
Inhibition of NF-κB•DNA complex formation (structure-activity study) (NF-κB•DNA complex): less effective than dLGG and dLG

CC/C=C\C/C=C\C/C=C\CCCCCCCC(=O)O[C@H](CO)CO[C@@H]1O[C@H](CO)[C@H](O)[C@H](O)[C@H]1O [2LGG, 2-O-α-linolenoyl-3-O-β-galactopyranosyl-sn-glycerol]
Inhibition of NF-κB•DNA complex formation (structure-activity study) (NF-κB•DNA complex): less effective than dLGG and dLG

CC1(C)N([O])C(c2ccccc2)=[N+]([O-])C1(C)C [PTIO, 2-phenyl-4,4,5,5-tetramethylimidazoline-1-oxyl-3-oxide, reference compound]
SNP-induced increase of nitrite plasma concentration (NO): suppressed

CCCCCCCCCCCCCCCCCC(=O)O [SA, stearic acid, reference compound]
Inhibition of NF-κB•DNA complex formation (structure-activity study) (NF-κB•DNA complex): little or no detectable effect

CC(=O)Oc1ccccc1C(=O)O [aspirin, reference compound]
Suppression of COX-2 promoter activity (human COX-2 promoter; 45 μg/mL): 19%

N.N.[Cl][Pt][Cl] [cisplatin]
Average tumor size (B16 melanoma; day 7, i.p. every 2 days, tumor control 0.73 cm): 0.29 cm
Average tumor size, of the tumor control (B16 melanoma; day 17): 73%
Tumor weight to body weight ratio (B16 melanoma; day 21, tumor control 31.3%): 25.2%
Body weights versus other groups (B16 melanoma; throughout treatment): no significant differences

CC/C=C\C/C=C\C/C=C\CCCCCCCC(=O)OC[C@H](CO)OC(=O)CCCCCCC/C=C\C/C=C\C/C=C\CC [dLG, 1,2-di-O-α-linolenoyl-sn-glycerol]
Inhibition of NF-κB•DNA complex formation (structure-activity study) (NF-κB•DNA complex): almost completely inhibited

COc1ccc2c(c1)c(CC(=O)O)c(C)n2C(=O)c1ccc(Cl)cc1 [indomethacin, reference compound]
Suppression of COX-2 promoter activity (human COX-2 promoter; 15 μg/mL): 28%
